Measurements from ChEMBL document CHEMBL4616626, “Design, synthesis and biological evaluation of HIV-1 protease inhibitors with morpholine derivatives as P2 ligands in combination with cyclopropyl as P1' ligand” (Bioorg Med Chem Lett, 2020).

Each molecule was assayed against Human immunodeficiency virus type 1 protease (Human immunodeficiency virus 1, UniProt Q72874) (assay: Inhibition of HIV1 protease by FRET assay).

Question: For `O=C(N[C@@H](Cc1ccccc1)[C@H](O)CN(C1CC1)S(=O)(=O)c1ccc([N+](=O)[O-])cc1)OCCN1CCOCC1`, which IC50 is on record?
Answer: 0.08 µM

Question: Which IC50 does the source give for `O=C(N[C@@H](Cc1ccccc1)[C@H](O)CN(C1CC1)S(=O)(=O)c1ccc(C(F)(F)F)cc1)N1CCOCC1` here?
Answer: 0.047 µM

Question: With `O=S(=O)(c1ccc(C(F)(F)F)cc1)N(C[C@@H](O)[C@H](Cc1ccccc1)NCCN1CCOCC1)C1CC1` as the molecule, how does the IC50 read?
Answer: 1.69 µM

Question: `COc1ccc(S(=O)(=O)N(C[C@@H](O)[C@H](Cc2ccccc2)NCCN2CCOCC2)C2CC2)cc1` was tested. Which IC50 did it give?
Answer: 0.17 µM

Question: `C[C@@H]1CN(CC(=O)N[C@@H](Cc2ccccc2)[C@H](O)CN(C2CC2)S(=O)(=O)c2ccc(N)cc2)CCO1` was tested. Which IC50 did it give?
Answer: 1.53 µM

Question: With `O=C(CN1CCOCC1)N[C@@H](Cc1ccccc1)[C@H](O)CN(C1CC1)S(=O)(=O)c1ccc(C(F)(F)F)cc1` as the molecule, how does the IC50 read?
Answer: 0.4 µM

Question: With `Nc1ccc(S(=O)(=O)N(C[C@@H](O)[C@H](Cc2ccccc2)NC(=O)OCCN2CCOCC2)C2CC2)cc1` as the molecule, how does the IC50 read?
Answer: 0.061 µM

Question: Which IC50 does the source give for `COc1ccc(S(=O)(=O)N(C[C@@H](O)[C@H](Cc2ccccc2)NC(=O)OCCN2CCOCC2)C2CC2)cc1` here?
Answer: 0.053 to 0.054 µM

Question: `O=C(CN1CCOCC1)N[C@@H](Cc1ccccc1)[C@H](O)CN(C1CC1)S(=O)(=O)c1ccc([N+](=O)[O-])cc1` was tested. Which IC50 did it give?
Answer: 5.43 µM

Question: How did the IC50 turn out when `C[C@H]1CN(CC(=O)N[C@@H](Cc2ccccc2)[C@H](O)CN(C2CC2)S(=O)(=O)c2ccc(N)cc2)CCO1` was run?
Answer: 1.34 µM

Question: How did the IC50 turn out when `COc1ccc(S(=O)(=O)N(C[C@@H](O)[C@H](Cc2ccccc2)NC(=O)CN2CCO[C@H](C)C2)C2CC2)cc1` was run?
Answer: 0.19 µM

Question: How did the IC50 turn out when `COc1ccc(S(=O)(=O)N(C[C@@H](O)[C@H](Cc2ccccc2)NC(=O)CN2CCO[C@@H](C)C2)C2CC2)cc1` was run?
Answer: 1.27 µM

Question: For `COc1ccc(S(=O)(=O)N(C[C@@H](O)[C@H](Cc2ccccc2)NC(=O)N2CCOCC2)C2CC2)cc1`, which IC50 is on record?
Answer: 0.26 µM

Question: `O=C(CN[C@@H](Cc1ccccc1)[C@H](O)CN(C1CC1)S(=O)(=O)c1ccc(C(F)(F)F)cc1)N1CCOCC1` was tested. Which IC50 did it give?
Answer: 1.26 µM

Question: Which IC50 does the source give for `O=C(CN[C@@H](Cc1ccccc1)[C@H](O)CN(C1CC1)S(=O)(=O)c1ccc([N+](=O)[O-])cc1)N1CCOCC1` here?
Answer: > 10 µM

Question: For `C[C@@H]1CN(CC(=O)N[C@@H](Cc2ccccc2)[C@H](O)CN(C2CC2)S(=O)(=O)c2ccc(C(F)(F)F)cc2)CCO1`, which IC50 is on record?
Answer: 2.99 µM

Question: How did the IC50 turn out when `C[C@H]1CN(CC(=O)N[C@@H](Cc2ccccc2)[C@H](O)CN(C2CC2)S(=O)(=O)c2ccc([N+](=O)[O-])cc2)CCO1` was run?
Answer: 0.58 µM

Question: With `Nc1ccc(S(=O)(=O)N(C[C@@H](O)[C@H](Cc2ccccc2)NCC(=O)N2CCOCC2)C2CC2)cc1` as the molecule, how does the IC50 read?
Answer: 1.15 µM

Question: Which IC50 does the source give for `Nc1ccc(S(=O)(=O)N(C[C@@H](O)[C@H](Cc2ccccc2)NC(=O)CN2CCOCC2)C2CC2)cc1` here?
Answer: > 10 µM

Question: With `C[C@H]1CN(CC(=O)N[C@@H](Cc2ccccc2)[C@H](O)CN(C2CC2)S(=O)(=O)c2ccc(C(F)(F)F)cc2)CCO1` as the molecule, how does the IC50 read?
Answer: 0.4 µM

Question: Which IC50 does the source give for `Nc1ccc(S(=O)(=O)N(C[C@@H](O)[C@H](Cc2ccccc2)NCCN2CCOCC2)C2CC2)cc1` here?
Answer: 0.94 µM

Question: How did the IC50 turn out when `C[C@@H]1CN(CC(=O)N[C@@H](Cc2ccccc2)[C@H](O)CN(C2CC2)S(=O)(=O)c2ccc([N+](=O)[O-])cc2)CCO1` was run?
Answer: 0.93 µM

Question: `O=C(N[C@@H](Cc1ccccc1)[C@H](O)CN(C1CC1)S(=O)(=O)c1ccc([N+](=O)[O-])cc1)N1CCOCC1` was tested. Which IC50 did it give?
Answer: 0.79 µM

Question: How did the IC50 turn out when `Nc1ccc(S(=O)(=O)N(C[C@@H](O)[C@H](Cc2ccccc2)NC(=O)N2CCOCC2)C2CC2)cc1` was run?
Answer: 0.64 µM

Question: With `COc1ccc(S(=O)(=O)N(C[C@@H](O)[C@H](Cc2ccccc2)NCC(=O)N2CCOCC2)C2CC2)cc1` as the molecule, how does the IC50 read?
Answer: 0.18 µM

Question: How did the IC50 turn out when `COc1ccc(S(=O)(=O)N(C[C@@H](O)[C@H](Cc2ccccc2)NC(=O)CN2CCOCC2)C2CC2)cc1` was run?
Answer: 1.04 µM

Question: `O=C(N[C@@H](Cc1ccccc1)[C@H](O)CN(C1CC1)S(=O)(=O)c1ccc(C(F)(F)F)cc1)OCCN1CCOCC1` was tested. Which IC50 did it give?
Answer: 0.12 µM

Question: With `O=[N+]([O-])c1ccc(S(=O)(=O)N(C[C@@H](O)[C@H](Cc2ccccc2)NCCN2CCOCC2)C2CC2)cc1` as the molecule, how does the IC50 read?
Answer: 0.61 µM
